This is an account of results in the supplement of paper PMC10307832.

Common to all, as to assay: relative viability (nuclei count vs DMSO), 5 days (fraction); higher = more cells survive
Compound in test [1]: COc1cc2ncn(-c3cc(OCc4ccccc4C(F)(F)F)c(C(N)=O)s3)c2cc1OC
Summed up:
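For viability, nuclei in each treated well were divided by nuclei in vehicle wells and the median across plates was taken. Lung cancer cell lines in 1536-well plates were pinned with five library-drug doses (not always all listed) spaced by √10, cultured 5 days without medium change, and imaged at 4× after Hoechst staining, with plates passing only at control CV below 25% and at least one doubling.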

Compound in test [2]: COc1cc2ncn(-c3cc(OCc4ccccc4C(F)(F)F)c(C(N)=O)s3)c2cc1OC + CC(=O)Nc1cccc(-n2c(=O)n(C3CC3)c(=O)c3c(Nc4ccc(I)cc4F)n(C)c(=O)c(C)c32)c1 [Trametinib] (partner 0.02 µM)
The method in brief:
(§1)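 Dosing by pin tool came one day after lung cancer cell lines were seeded in 1536-well plates, using either one drug or a fixed anchor-drug dose plus five library-drug doses (not always all listed) in √10 steps. After 5 days, nuclei were counted on 4× images. Relative viability is treated-well nuclei count divided by vehicle-well nuclei count, and values are medians of duplicate plates.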

Compound in test [3]: COc1cc2ncn(-c3cc(OCc4ccccc4C(F)(F)F)c(C(N)=O)s3)c2cc1OC + Cc1cc(Nc2cc(N3CCN(C)CC3)nc(Sc3ccc(NC(=O)C4CC4)cc3)n2)n[nH]1 [Tozasertib] (partner 0.1 µM)
The method in brief:
as §1

Compound in test [4]: COc1cc2ncn(-c3cc(OCc4ccccc4C(F)(F)F)c(C(N)=O)s3)c2cc1OC + NC(=O)Nc1cc(-c2cccc(F)c2)sc1C(=O)N[C@H]1CCCNC1 [AZD7762] (partner 0.2 µM)
Summed up:
as §1

Take NCI-H650: the relative viability in test [1] (0.05 µM) is 0.913; in test [1] (0.1581 µM) it was 0.961; in test [1] (0.5 µM) it was 0.69; in test [1] (1.581 µM) it was 0.33; in test [1] (5 µM) it was 0.349; in test [2] (first compound 0.05 µM), 0.954. The relative viability came to 0.722 in test [2] (first compound 0.1581 µM); 0.6 in test [2] (first compound 0.5 µM); 0.204 in test [2] (first compound 1.581 µM); 0.489 in test [2] (first compound 5 µM); 0.66 in test [3] (first compound 0.05 µM); 0.671 in test [3] (first compound 0.1581 µM). For the same cell line, the relative viability in test [3] (first compound 0.5 µM) turned out to be 0.35; in test [3] (first compound 1.581 µM), 0.173; in test [3] (first compound 5 µM) it was 0.237; in test [4] (first compound 0.05 µM), 1.21; in test [4] (first compound 0.1581 µM) it was 1.01; in test [4] (first compound 0.5 µM), 0.92. The relative viability in test [4] (first compound 1.581 µM) came to 0.561; in test [4] (first compound 5 µM) it was 0.581.
As for NCI-H1651, the relative viability was determined as 1.05 in test [1] (0.05 µM); 0.992 in test [1] (0.1581 µM); 0.77 in test [1] (0.5 µM); 0.398 in test [1] (1.581 µM); 0.221 in test [1] (5 µM); 0.86 in test [2] (first compound 0.05 µM). The relative viability in test [2] (first compound 0.1581 µM) was determined as 0.788; in test [2] (first compound 0.5 µM), 0.755; in test [2] (first compound 1.581 µM), 0.593; in test [2] (first compound 5 µM), 0.702; in test [3] (first compound 0.05 µM), 0.89; in test [3] (first compound 0.1581 µM) it was 0.706. Further, the relative viability in test [3] (first compound 0.5 µM) was 0.314; in test [3] (first compound 1.581 µM), 0.182; in test [3] (first compound 5 µM), 0.155; in test [4] (first compound 0.05 µM), 0.415; in test [4] (first compound 0.1581 µM), 0.518; in test [4] (first compound 0.5 µM), 0.32. Moreover, the relative viability in test [4] (first compound 1.581 µM) amounted to 0.37; in test [4] (first compound 5 µM) it was 0.303.
For NCI-H1734, the relative viability in test [1] (0.05 µM) stood at 1.02; in test [1] (0.1581 µM), 1.02; in test [1] (0.5 µM), 0.591; in test [1] (1.581 µM), 0.224; in test [1] (5 µM) it was 0.174; in test [2] (first compound 0.05 µM) it was 0.52. The relative viability in test [2] (first compound 0.1581 µM) amounted to 0.558; in test [2] (first compound 0.5 µM) it was 0.623; in test [2] (first compound 1.581 µM), 0.294; in test [2] (first compound 5 µM), 0.163; in test [3] (first compound 0.05 µM) it was 0.272; in test [3] (first compound 0.1581 µM) it was 0.245. Further, the relative viability in test [3] (first compound 0.5 µM) was 0.226; in test [3] (first compound 1.581 µM), 0.224; in test [3] (first compound 5 µM) it was 0.17; in test [4] (first compound 0.05 µM) it was 0.588; in test [4] (first compound 0.1581 µM), 0.608; in test [4] (first compound 0.5 µM) it was 0.511. The relative viability in test [4] (first compound 1.581 µM) was 0.18; in test [4] (first compound 5 µM) it was 0.134.
As for NCI-H3122, the relative viability amounted to 1 in test [1] (0.05 µM); 0.872 in test [1] (0.1581 µM); 0.317 in test [1] (0.5 µM); 0.145 in test [1] (1.581 µM); 0.173 in test [1] (5 µM); 0.209 in test [2] (first compound 0.05 µM). For the same cell line, the relative viability turned out to be 0.213 in test [2] (first compound 0.1581 µM); 0.143 in test [2] (first compound 0.5 µM); 0.135 in test [2] (first compound 1.581 µM); 0.155 in test [2] (first compound 5 µM); 0.359 in test [3] (first compound 0.05 µM); 0.392 in test [3] (first compound 0.1581 µM). The relative viability in test [3] (first compound 0.5 µM) is 0.211; in test [3] (first compound 1.581 µM), 0.286; in test [3] (first compound 5 µM), 0.284; in test [4] (first compound 0.05 µM), 1.07; in test [4] (first compound 0.1581 µM), 0.81; in test [4] (first compound 0.5 µM) it was 0.359. Besides, the relative viability in test [4] (first compound 1.581 µM) turned out to be 0.133; in test [4] (first compound 5 µM), 0.144.
On to CAL-12T, for which the relative viability is 0.827 in test [1] (0.05 µM); 0.836 in test [1] (0.1581 µM); 0.565 in test [1] (0.5 µM); 0.249 in test [1] (1.581 µM); 0.193 in test [1] (5 µM); 0.387 in test [2] (first compound 0.05 µM). The relative viability was determined as 0.278 in test [2] (first compound 0.1581 µM); 0.272 in test [2] (first compound 0.5 µM); 0.178 in test [2] (first compound 1.581 µM); 0.161 in test [2] (first compound 5 µM); 0.316 in test [3] (first compound 0.05 µM); 0.26 in test [3] (first compound 0.1581 µM). Moreover, the relative viability stood at 0.208 in test [3] (first compound 0.5 µM); 0.164 in test [3] (first compound 1.581 µM); 0.2 in test [3] (first compound 5 µM); 0.555 in test [4] (first compound 0.05 µM); 0.598 in test [4] (first compound 0.1581 µM); 0.514 in test [4] (first compound 0.5 µM). Further, the relative viability in test [4] (first compound 1.581 µM) was 0.239; in test [4] (first compound 5 µM), 0.199.
Turning to HCC-78, the relative viability was found to be 1.03 in test [1] (0.05 µM); 0.998 in test [1] (0.1581 µM); 0.749 in test [1] (0.5 µM); 0.623 in test [1] (1.581 µM); 0.47 in test [1] (5 µM); 0.949 in test [2] (first compound 0.05 µM). Moreover, the relative viability came out at 0.54 in test [2] (first compound 0.1581 µM); 0.544 in test [2] (first compound 0.5 µM); 0.642 in test [2] (first compound 1.581 µM); 0.682 in test [2] (first compound 5 µM); 0.517 in test [3] (first compound 0.05 µM); 0.345 in test [3] (first compound 0.1581 µM). Moreover, the relative viability in test [3] (first compound 0.5 µM) came out at 0.325; in test [3] (first compound 1.581 µM), 0.222; in test [3] (first compound 5 µM) it was 0.292; in test [4] (first compound 0.05 µM), 0.795; in test [4] (first compound 0.1581 µM), 0.653; in test [4] (first compound 0.5 µM) it was 0.493. The relative viability in test [4] (first compound 1.581 µM) amounted to 0.565; in test [4] (first compound 5 µM), 0.422.
As for NCI-H2085, the relative viability turned out to be 0.925 in test [1] (0.05 µM); 1.03 in test [1] (0.1581 µM); 0.759 in test [1] (0.5 µM); 0.402 in test [1] (1.581 µM); 0.407 in test [1] (5 µM); 0.332 in test [2] (first compound 0.05 µM). Besides, the relative viability in test [2] (first compound 0.1581 µM) is 0.614; in test [2] (first compound 0.5 µM) it was 0.421; in test [2] (first compound 1.581 µM) it was 0.221; in test [2] (first compound 5 µM) it was 0.2; in test [3] (first compound 0.05 µM), 0.761; in test [3] (first compound 0.1581 µM), 0.738. Besides, the relative viability in test [3] (first compound 0.5 µM) worked out at 0.403; in test [3] (first compound 1.581 µM) it was 0.407; in test [3] (first compound 5 µM), 0.454; in test [4] (first compound 0.05 µM), 0.969; in test [4] (first compound 0.1581 µM) it was 0.964; in test [4] (first compound 0.5 µM), 0.862. Also, the relative viability in test [4] (first compound 1.581 µM) turned out to be 0.39; in test [4] (first compound 5 µM), 0.248.
